According to paper PMC8026479 (Cancer Chemotherapy and Pharmacology, 2021):
Where two headings read alike, the source gives them in different places.

Legend:
[1] = Study G1T28-03 Part 1 plasma PK (with topotecan); format: in vivo, human; conditions: for Cmax / T1/2 / AUC(0-inf) / clearance / Vd / half-life: geometric mean; for Vd: read-out: Vz; for Tmax: range
Description: G1T28-03 (NCT02514447) was a multicentre Phase Ib/IIa study in patients with previously treated ES-SCLC [14]. […] Part 1 was a Phase Ib, open-label, dose-finding portion. Part 2 was a Phase IIa, randomized, double-blind, placebo-controlled portion. […] In Part 1 of the study, blood samples for PK analysis were collected at prespecified time points on Cycle 1 Day 1 and Cycle 1 Day 4 for all patients.

[2] = test system: chemotherapy-induced myelosuppression in ES-SCLC patients; assay: Study G1T28-03 Part 1 DLTs and myelosuppression endpoints (with topotecan); format: in vivo, human
Description: G1T28-03 (NCT02514447) was a multicentre Phase Ib/IIa study in patients with previously treated ES-SCLC [14]. Patients were aged ≥ 18 years and had histologically or cytologically confirmed ES-SCLC that had progressed during or after prior first- or second-line chemotherapy, measurable disease per RECIST version 1.1, an ECOG performance status of 0–2, and adequate organ function. Part 1 was a Phase Ib, open-label, dose-finding portion. Part 2 was a Phase IIa, randomized, double-blind, placebo-controlled portion. […] In Part 1 of the study, blood samples for PK analysis were collected at prespecified time points on Cycle 1 Day 1 and Cycle 1 Day 4 for all patients.

[3] = ES-SCLC + topotecan, 280 mg/m2, Cycle 1 Day 1 (n = 7)
[4] = human, plasma, 200 mg/m2, ES-SCLC + topotecan, 200 mg/m2, Cycle 1 Day 4 (n = 9)
[5] = human, plasma, 280 mg/m2, ES-SCLC + topotecan, 280 mg/m2, Cycle 1 Day 1 (n = 7)
[6] = human, plasma, 280 mg/m2, ES-SCLC + topotecan, 280 mg/m2, Cycle 1 Day 4 (n = 7)
[7] = human, plasma, ES-SCLC + topotecan, 200 mg/m2, Cycle 1 Day 1 (n = 10)
[8] = human, plasma, ES-SCLC + topotecan, 240 mg/m2, Cycle 1 Day 1 (n = 14)
[9] = human, plasma, ES-SCLC + topotecan, 240 mg/m2, Cycle 1 Day 4 (n = 15)
[10] = G1T28-03 Part 1, 200 mg/m2 + topotecan 0.75 mg/m2 (n = 4)
[11] = G1T28-03 Part 1, 200 mg/m2 + topotecan 1.25 mg/m2 (n = 3)
[12] = G1T28-03 Part 1, 200 mg/m2 + topotecan […]2 (n = 2)

Cmax ([1]; ES-SCLC + topotecan, 200 mg/m2, Cycle 1 Day 4 (n = 9)): 1060 ng/mL
T1/2 ([1]; ES-SCLC + topotecan, 240 mg/m2, Cycle 1 Day 1 (n = 14)): 407 min
Cmax [1, 3]: 1110 ng/mL
T1/2 [1, 3]: 443 min
accumulation on repeated daily dosing ([1]; G1T28-03 Part 1, 280 mg/m2, Day 1 vs Day 4, not observed at lower dose levels): resulted in drug accumulation
AUC(0-inf) ([1]; human, plasma, 200 mg/m2, ES-SCLC + topotecan, 200 mg/m2, Cycle 1 Day 1 (n = 10), read-out: AUC0-inf): 2410 ng·h/mL
clearance [1, 4]: 2850 mL/min
Vd [1, 4]: 2120 L
Tmax [1, 4]: 22.8 to 34.8 min
AUC(0-inf) ([1]; human, plasma, 240 mg/m2, ES-SCLC + topotecan, 240 mg/m2, Cycle 1 Day 1 (n = 14), read-out: AUC0-inf): 2910 ng·h/mL
Tmax ([1]; human, plasma, 240 mg/m2, ES-SCLC + topotecan, 240 mg/m2, Cycle 1 Day 1 (n = 14)): 24 to 42 min
AUC(0-inf) ([1]; human, plasma, 240 mg/m2, ES-SCLC + topotecan, 240 mg/m2, Cycle 1 Day 4 (n = 15), read-out: AUCtau (AUC0-inf, footnote a)): 2880 ng·h/mL
Vd ([1]; human, plasma, 240 mg/m2, ES-SCLC + topotecan, 240 mg/m2, Cycle 1 Day 4 (n = 15)): 1730 L
clearance [1, 5]: 2680 mL/min
AUC(0-inf) ([1]; human, plasma, 280 mg/m2, ES-SCLC + topotecan, 280 mg/m2, Cycle 1 Day 1 (n = 7), read-out: AUC0-inf): 3490 ng·h/mL
Vd [1, 5]: 1720 L
Tmax [1, 5]: 25.2 to 37.2 min
clearance [1, 6]: 2080 mL/min
AUC(0-inf) ([1]; human, plasma, 280 mg/m2, ES-SCLC + topotecan, 280 mg/m2, Cycle 1 Day 4 (n = 7), read-out: AUCtau (AUC0-inf, footnote a)): 4520 ng·h/mL
Vd [1, 6]: 1530 L
Tmax [1, 6]: 25.2 to 33 min
clearance [1, 7]: 2750 mL/min
half-life [1, 7]: 415 min
Vd [1, 7]: 1650 L
Tmax [1, 7]: 25.2 to 40.2 min
clearance [1, 8]: 2420 mL/min
Cmax ([1]; human, plasma, ES-SCLC + topotecan, 240 mg/m2, Cycle 1 Day 1 (n = 14), read-out: Cmax): 1270 ng/mL
Vd [1, 8]: 1430 L
Tmax [1, 9]: 22.8 to 90 min
half-life ([1]; human, plasma, ES-SCLC + topotecan, 200 mg/m2, Cycle 1 Day 4 (n = 9)): 514 min
clearance [1, 9]: 2470 mL/min
Cmax ([1]; human, plasma, ES-SCLC + topotecan, 240 mg/m2, Cycle 1 Day 4 (n = 15), read-out: Cmax): 1220 ng/mL
half-life ([1]; human, plasma, ES-SCLC + topotecan, 280 mg/m2, Cycle 1 Day 4 (n = 7)): 512 min
Cmax ([1]; human, plasma, ES-SCLC + topotecan, 280 mg/m2, Cycle 1 Day 4 (n = 7), read-out: Cmax): 2220 ng/mL
patients reporting DLTs ([2]; G1T28-03 Part 1, 200 mg/m2 + topotecan 0.75 mg/m2): 2 of 4
SMILES: CN1CCN(c2ccc(Nc3ncc4cc5n(c4n3)C3(CCCCC3)CNC5=O)nc2)CC1 [trilaciclib]
DSN in Cycle 1, mean (SD) [2, 10]: 0 (0.0) days
MAHE, event rate [2, 10]: 0.102 per week
Mean ANC Nadir in Cycle 1 [2, 10]: 0.98 (0.330) ×109/L
Occurrence of ESA administrations [2, 10]: 0 n (%)
Occurrence of FN [2, 10]: 0 n (%)
Occurrence of G-CSF administration [2, 10]: 1 (25.0) n (%)
Occurrence of Grade 3 or 4 decreased hemoglobin laboratory values [2, 10]: 2 (50.0) n (%)
Occurrence of Grade 3 or 4 decreased platelet count values [2, 10]: 2 (50.0) n (%)
Occurrence of Grade 3 or 4 hematologic laboratory abnormalities [2, 10]: 4 (100.0) n (%)
Occurrence of IV antibiotic use [2, 10]: 1 (25.0) n (%)
Occurrence of RBC transfusions on/after Week 5 [2, 10]: 2 (50.0) n (%)
Occurrence of SN [2, 10]: 1 (25.0) n (%)
Occurrence of infection SAEs [2, 10]: 1 (25.0) n (%)
Occurrence of platelet transfusions [2, 10]: 0 n (%)
Occurrence of pulmonary infection SAEs [2, 10]: 1 (25.0) n (%)
DSN in Cycle 1, mean (SD) [2, 11]: 8 (6.8) days
MAHE, event rate [2, 11]: 0.156 per week
Mean ANC Nadir in Cycle 1 [2, 11]: 0.47 (0.551) ×109/L
Occurrence of ESA administrations [2, 11]: 1 (33.3) n (%)
Occurrence of FN [2, 11]: 0 n (%)
Occurrence of G-CSF administration [2, 11]: 2 (66.7) n (%)
Occurrence of Grade 3 or 4 decreased hemoglobin laboratory values [2, 11]: 1 (33.3) n (%)
Occurrence of Grade 3 or 4 decreased platelet count values [2, 11]: 1 (33.3) n (%)
Occurrence of Grade 3 or 4 hematologic laboratory abnormalities [2, 11]: 3 (100.0) n (%)
Occurrence of IV antibiotic use [2, 11]: 1 (33.3) n (%)
Occurrence of RBC transfusions on/after Week 5 [2, 11]: 1 (33.3) n (%)
Occurrence of SN [2, 11]: 2 (66.7) n (%)
Occurrence of infection SAEs [2, 11]: 1 (33.3) n (%)
Occurrence of platelet transfusions [2, 11]: 1 (33.3) n (%)
Occurrence of pulmonary infection SAEs [2, 11]: 1 (33.3) n (%)
DSN in Cycle 1, mean (SD) [2, 12]: 14 (1.4) days
MAHE, event rate [2, 12]: 0.403 per week
Mean ANC Nadir in Cycle 1 [2, 12]: 0.20 (0.000) ×109/L
Occurrence of ESA administrations [2, 12]: 2 (100) n (%)
Occurrence of FN [2, 12]: 0 n (%)
Occurrence of G-CSF administration [2, 12]: 2 (100) n (%)
